Results on 16 compounds are retold here after patent US9284272B2, “Inhibitors of histone methyltransferase G9a” (AbbVie Inc., priority 2014, dated 2016).

SMILES strings stand for the structures.

For one assay, the target named is T1, G9a (Homo sapiens, UniProt Q96KQ7).
T1 sequence (Q96KQ7 1-1210): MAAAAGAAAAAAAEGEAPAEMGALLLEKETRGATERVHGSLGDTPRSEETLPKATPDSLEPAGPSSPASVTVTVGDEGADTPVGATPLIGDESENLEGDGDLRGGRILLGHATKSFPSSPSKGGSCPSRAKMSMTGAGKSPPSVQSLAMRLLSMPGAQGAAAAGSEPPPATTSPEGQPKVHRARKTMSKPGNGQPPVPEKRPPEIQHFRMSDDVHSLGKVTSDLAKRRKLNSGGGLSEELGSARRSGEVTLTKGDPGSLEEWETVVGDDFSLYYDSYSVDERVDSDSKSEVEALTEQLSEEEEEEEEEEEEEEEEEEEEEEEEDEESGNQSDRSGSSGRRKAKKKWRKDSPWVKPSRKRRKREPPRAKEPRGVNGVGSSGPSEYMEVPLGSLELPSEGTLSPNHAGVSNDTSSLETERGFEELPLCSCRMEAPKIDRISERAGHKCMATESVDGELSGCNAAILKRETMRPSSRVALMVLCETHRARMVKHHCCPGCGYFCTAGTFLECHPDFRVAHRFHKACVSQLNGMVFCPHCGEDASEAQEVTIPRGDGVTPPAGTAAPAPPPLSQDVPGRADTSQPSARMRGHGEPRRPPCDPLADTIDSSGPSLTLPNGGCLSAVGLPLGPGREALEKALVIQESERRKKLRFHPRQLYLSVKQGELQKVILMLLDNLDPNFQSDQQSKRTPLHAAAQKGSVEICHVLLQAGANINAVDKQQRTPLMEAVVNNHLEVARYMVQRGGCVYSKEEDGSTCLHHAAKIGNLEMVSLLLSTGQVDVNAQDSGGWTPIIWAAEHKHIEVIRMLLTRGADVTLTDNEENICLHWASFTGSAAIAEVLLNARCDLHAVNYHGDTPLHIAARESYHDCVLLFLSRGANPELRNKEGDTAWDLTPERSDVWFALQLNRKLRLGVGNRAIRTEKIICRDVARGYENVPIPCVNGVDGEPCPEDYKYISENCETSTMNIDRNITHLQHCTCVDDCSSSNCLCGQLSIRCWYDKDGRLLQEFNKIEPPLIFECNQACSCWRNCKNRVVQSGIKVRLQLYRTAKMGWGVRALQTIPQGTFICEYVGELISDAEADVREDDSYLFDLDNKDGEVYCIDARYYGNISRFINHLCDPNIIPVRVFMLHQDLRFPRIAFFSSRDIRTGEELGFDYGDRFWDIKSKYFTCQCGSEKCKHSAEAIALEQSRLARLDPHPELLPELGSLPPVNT
Put plainly: Inhibition of G9a, AlphaLISA assay.
Conditions: not given
It counts as biochemical. The protocol: The G9a assay was conducted in an Alphascreen format to detect methyl modification of a histone H3 peptide by the histone methyl transferase activity of the G9a enzyme.
For the assay, the following buffer was used to set up reactions: 50 mM Tris-HCl pH 7.5, 50 mM NaCl, 1 mM DTT, 0.01% Triton X-100, and 0.005% BSA, with the DTT and BSA added fresh prior to starting the reactions.
IC50 values were calculated by fitting the inhibition percent to the concentration of inhibitor [I] in the assay in equation 1 below, to solve for the IC50.
On to `COc1cc2c(cc1OCCC1CCCN1C)N=C(N)C21CCC1` (stereo not shown) [Example 10, 5′-methoxy-6′-(2-(1-methylpyrrolidin-2-yl)ethoxy)spiro[cyclobutane-1,3′-indol]-2′-amine], for which the IC50 – broadly, the concentration needed to halve the response being measured – was 150 nM.

In turn, `COc1cc2c(cc1OCCCN1CC(F)C1)N=C(N)C21CCC1` [Example 13, 6′-(3-(3-fluoroazetidin-1-yl)propoxy)-5′-methoxyspiro[cyclobutane-1,3′-indol]-2′-amine] returned an IC50 of 4.8 nM. `COc1cc2c(cc1OCCCn1ccnc1)N=C(N)C21CCC1` [Example 11, 6′-(3-(1H-imidazol-1-yl)propoxy)-5′-methoxyspiro[cyclobutane-1,3′-indol]-2′-amine] returned an IC50 of 754 nM. Regarding `COc1cc2c(cc1OCCCN1CC(F)(F)C1)N=C(N)C21CCC1` [Example 14, 6′-(3-(3,3-difluoroazetidin-1-yl)propoxy)-5′-methoxyspiro[cyclobutane-1,3′-indol]-2′-amine], 1340 nM corresponded to half-maximal inhibition (IC50). For `COc1cc2c(cc1OCCCC1CCCC1)N=C(N)C2(C)C` [Example 17, 6-(3-cyclopentylpropoxy)-5-methoxy-3,3-dimethyl-3H-indol-2-amine], half-maximal inhibition (IC50) required 12900 nM. Turning to `COc1ccc2c(c1)C1(CCC1)C(N)=N2` [Example 5, 5′-methoxyspiro[cyclobutane-1,3′-indol]-2′-amine], the IC50 worked out at 18200 nM. The IC50 values of the last two compounds are within 1.5-fold of each other.

`COc1cc2c(cc1OCCCN1CC[C@@H](F)C1)N=C(N)C21CCC1` [Example 15, (R)-6′-(3-(3-fluoropyrrolidin-1-yl)propoxy)-5′-methoxyspiro[cyclobutane-1,3′-indol]-2′-amine] had a concentration for half-maximal inhibition (IC50) of 18 nM. On the same count and under the same terms, the same measure for `COc1cc2c(cc1OCC1CCN(C)C1)N=C(N)C21CCC1` (stereo not shown) [Example 8, 5′-methoxy-6′-((1-methylpyrrolidin-3-yl)methoxy)spiro[cyclobutane-1,3′-indol]-2′-amine]: 1 nM; for `COc1cc2c(cc1OCC1CCCN1C)N=C(N)C21CCC1` (stereo not shown) [Example 9, 5′-methoxy-6′-((1-methylpyrrolidin-2-yl)methoxy)spiro[cyclobutane-1,3′-indol]-2′-amine]: 5 nM; for `COc1cc2c(cc1OC)C1(CCCC1)C(N)=N2` [Example 4, 5′,6′-dimethoxyspiro[cyclopentane-1,3′-indol]-2′-amine]: 2460 nM. The compound `COc1cc2c(cc1OCCCN1CC[C@H](F)C1)N=C(N)C21CCC1` [Example 12, (S)-6′-(3-(3-fluoropyrrolidin-1-yl)propoxy)-5′-methoxyspiro[cyclobutane-1,3′-indol]-2′-amine] registered an IC50 of 3.7 nM. This IC50 lies about 660-fold lower than the previous one.

On to `COc1cc2c(cc1OC)N=C(N)C2` [Example 6, 5,6-dimethoxy-3H-indol-2-amine], for which the IC50 worked out at 14400 nM. This IC50 lies about 3900-fold higher than the previous one.

On to `COc1cc2c(cc1OC)C1(CCC1)C(N)=N2` [Example 3, 5′,6′-dimethoxyspiro[cyclobutane-1,3′-indol]-2′-amine], for which the half-maximal inhibitory concentration (IC50) worked out at 153 nM. The same measure, in the same setting: the value for `COc1cc2c(cc1OC)C1(CCCCC1)C(N)=N2` [Example 2, 5′,6′-dimethoxyspiro[cyclohexane-1,3′-indol]-2′-amine] was 3540 nM.

The compound `COc1cc2c(cc1OCCCN1CCCC1)N=C(N)C2(C)C` [Example 16, 5-methoxy-3,3-dimethyl-6-(3-(pyrrolidin-1-yl)propoxy)-3H-indol-2-amine] gave an IC50 of 0.9 nM.

The next assay deals with MV4;11 cells. Kind of assay: Differentiation, proliferation, viability and cell cycle of MV4;11 cells, 14 days. The following applies: MV4;11 cells, 0-3 μM. The assay is classed as cell-based, human. From the text: MV4;11 cells are a human acute myelocytic leukemia (AML) cell line derived from a human with leukemia.
On to `CC1=C(/C=C/C(C)=C/C=C/C(C)=C/C(=O)O)C(C)(C)CCC1` [ATRA, all trans retinoic acid, reference compound], for which the “cell cycle analysis (PI staining)” value is listed as “more cells were observed to be in the subG1/G0 phase” and the “expression of marker CD11b by flow cytometry (differentiation)” value is recorded as “more cells in the population expressed the marker CD11b”.

The assay is the same for the next values; noted with them: MV4;11 cells, compared with Example 7.
With `CC1=C(/C=C/C(C)=C/C=C/C(C)=C/C(=O)O)C(C)(C)CCC1` [ATRA, all trans retinoic acid, reference compound], the “effect on cell viability” value is reported as “less of an effect on cell viability”.

The assay is the same for the next values; noted with them: MV4;11 cells, increasing concentration.
As for `CC1=C(/C=C/C(C)=C/C=C/C(C)=C/C(=O)O)C(C)(C)CCC1` [ATRA, all trans retinoic acid, reference compound], the “growth inhibition and expression of CD11b” value was “lead to growth inhibition and expression of CD11b”.
